Assay results as given in patent US20250109140A1, “5-[5-(PIPERIDIN-4-YL)THIENO[3,2-C]PYRAZOL-2-YL]INDAZOLE DERIVATIVES AND RELATED COMPOUNDS AS MODULATORS FOR SPLICING NUCLEIC ACIDS AND FOR THE TREATMENT OF PROLIFERATIVE DISEASES” (REMIX THERAPUTICS INC., priority 2022, published 2025).
Counter-ions that a name gives are not always drawn. Like-named read-outs stand apart in the source and are kept apart here.

Tests used:
[1] = system: HiBiT-tagged HTT protein; test: HiBiT protein abundance assay, HTT (K562 HiBiT knock-in cells); type: cell-based, human; conditions: 24 hours treatment
Method in brief: (§1)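 K562 cells carrying endogenous HiBiT-tagged targets were treated 24 h at 37 °C with 10-point 3-fold dilutions from 10 µM final (≤0.25% DMSO). Abundance read by lytic HiBiT luminescence, normalized to DMSO and unmodified-K562 controls; IC50 is the 4-parameter-fit concentration giving 50% of untreated signal.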

[2] = system: Target C; test: HiBiT protein abundance assay, Target C (K562 HiBiT knock-in cells); type: cell-based, human; conditions: 24 hours treatment
Method in brief: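 K562 HiBiT knock-in cells (10000/well) were treated 24 h at 37 °C with a 10-point 3-fold dilution series, top final concentration […], DMSO ≤0.25%. Target abundance was read by lytic HiBiT luminescence and normalized to unmodified K562 and DMSO controls. A four-parameter fit gave the concentration giving 50% of untreated abundance.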

[3] = system: K562 (human chronic myelogenous leukemia) cells; test: Cell viability, Cell Titer Glo 2.0 assay, K562 cells; type: cell-based; conditions: 72 hours
Method in brief: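 K562 cells seeded at 500 cells/well in IMDM + 10% FBS; compounds serially diluted in DMSO, then 1:100 in medium (final DMSO 0.1%). Incubated 72 h at 37° C, 5% CO2; viability read by Cell Titer Glo 2.0 luminescence against medium-only blank.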

[4] = system: Target C mRNA; test: Splicing RT-qPCR gene panel, Target C canonical junction (CJ) mRNA; type: cell-based; conditions: Homo sapiens; Table 8; larger gene panel, decrease in CJ mRNA levels
Method in brief: (§2)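 A673 or K562 cells were exposed for 24 h at 37 °C to an 11-point 3-fold dilution series (top 10 uM final, DMSO ≤0.25%). Lysates were analysed by one-step RT-qPCR for canonical (CJ) and alternative (AJ) junctions. Values were normalized to GAPDH, GUSB or PPIA and to DMSO (ΔΔCt), then converted to percentage response.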

[5] = system: HTT mRNA; test: Splicing RT-qPCR assay, HTT canonical (CJ) and alternative (AJ) junction mRNA; type: cell-based; conditions: Homo sapiens; for EC50: AC50 = 50% response in AJ mRNA increase
Method in brief: as §2

[6] = system: SMN2 mRNA; test: Splicing RT-qPCR gene panel, SMN2 canonical junction (CJ) mRNA; type: cell-based; conditions: Homo sapiens; Table 8; larger gene panel, decrease in CJ mRNA levels
Method in brief: as §2

[7] = system: HiBiT-tagged MYB protein; test: HiBiT protein abundance assay, MYB (K562 HiBiT knock-in cells); type: cell-based, human; conditions: 24 hours treatment
Method in brief: as §1

[8] = system: MYB mRNA; test: Splicing RT-qPCR assay, MYB canonical (CJ) and alternative (AJ) junction mRNA; type: cell-based; conditions: Homo sapiens; for EC50: AC50 = 50% response in AJ mRNA increase
Method in brief: as §2

[9] = Table 7, RT-qPCR, A673 or K562 cells, 24 hours treatment
[10] = Table 7, IC50 = 50% response in CJ mRNA decrease, RT-qPCR, A673 or K562 cells, 24 hours treatment, read-out: HTT CJ
[11] = Table 8, larger gene panel, decrease in CJ mRNA levels, read-out: HTT CJ IC50
[12] = Table 7, IC50 = 50% response in CJ mRNA decrease, RT-qPCR, A673 or K562 cells, 24 hours treatment, read-out: MYB CJ
[13] = Table 8, larger gene panel, decrease in CJ mRNA levels, read-out: MYB CJ IC50

Structure (SMILES) | IC50 [1] | IC50 [2] | IC50 [3] | IC50 [4] | EC50 [5, 9] | IC50 [5, 10] | IC50 [5, 11] | IC50 [6] | IC50 [7] | EC50 [8, 9] | IC50 [8, 12] | IC50 [8, 13]
Cn1cc2cc(-c3cc4cn(C5CCNCC5)nc4s3)c(O)c(F)c2n1 [Compound 215] | 0.1 to 1 µM | 1 to 10 µM | 1 to 10 µM | 0.1 to 1 µM | 0.1 to 1 µM | 0.1 to 1 µM | 0.1 to 1 µM | < 0.1 µM | 1 to 10 µM | 0.1 to 1 µM | 1 to 10 µM | 0.1 to 1 µM
Cc1cn2nc(-n3cc4sc(C5CCNCC5)cc4n3)cc(C)c2n1 [Compound 101, 4-(2-[2,8-dimethylimidazo[1,2-b]pyridazin-6-yl]thieno[3,2-c]pyrazol-5-yl)piperidine] | < 0.1 µM | < 0.1 µM | 0.1 to 1 µM | < 0.1 µM | 0.1 to 1 µM | < 0.1 µM | 0.1 to 1 µM | < 0.1 µM | 0.1 to 1 µM | 0.1 to 1 µM | 0.1 to 1 µM | 0.1 to 1 µM
Cc1cn2nc(-c3cc4cn([C@H]5CCNC[C@@H]5F)nc4s3)cc(C)c2n1 (mixture of isomers) [Compound 212, 5-(2,8-dimethylimidazo[1,2-b]pyridazin-6-yl)-2-((1:1 mixture of 3S,4S and 3R,4R)-3-fluoropiperidin-4-yl)-2H-thieno[2,3-c]pyrazole] | 1 to 10 µM | > 10 µM | 1 to 10 µM | > 10 µM | 1 to 10 µM | 1 to 10 µM | 1 to 10 µM | 0.1 to 1 µM | > 10 µM | > 10 µM | 1 to 10 µM | > 10 µM
Cc1cn2nc(-n3cc4sc(C5CCNCC5)cc4n3)nc2c(C)n1 [Compound 170] | 1 to 10 µM | 1 to 10 µM | 1 to 10 µM | 1 to 10 µM | 1 to 10 µM | 1 to 10 µM | 1 to 10 µM | 1 to 10 µM | 1 to 10 µM | 1 to 10 µM | 1 to 10 µM | 1 to 10 µM
Cc1cn2nc(-n3cc4sc(N5CC6(CN(C)C6)C5)cc4n3)cc(C)c2n1 [Compound 188, 2-(2-{2,8-dimethylimidazo[1,2-b]pyridazin-6-yl}thieno [3,2-c]pyrazol-5-yl)-6-methyl-2,6-diazaspiro [3.3]heptane] | 1 to 10 µM | 1 to 10 µM | 1 to 10 µM | 1 to 10 µM | 1 to 10 µM | 0.1 to 1 µM | 1 to 10 µM | 0.1 to 1 µM | 1 to 10 µM | 1 to 10 µM | 1 to 10 µM | 1 to 10 µM
Cc1cn2nc(-c3cc4cn(C5CCNCC5)nc4s3)c(O)c2c(C)n1 [Compound 213, 4,6-dimethyl-2-[2-(piperidin-4-yl)thieno[2,3-c]pyrazol-5-yl]pyrazolo[1,5-a]pyrazin-3-ol hydrochloride] | > 10 µM | > 10 µM | 1 to 10 µM | > 10 µM | 1 to 10 µM | 1 to 10 µM | 1 to 10 µM | 1 to 10 µM | > 10 µM | 1 to 10 µM | > 10 µM | 1 to 10 µM
CN1CCC(n2cc3cc(-c4cc(F)c5nn(C)cc5c4)sc3n2)CC1 [Compound 150, 7-fluoro-2-methyl-5-[2-(1-methylpiperidin-4-yl)thieno[2,3-c]pyrazol-5-yl]indazole] | < 0.1 µM | 0.1 to 1 µM | 0.1 to 1 µM | 0.1 to 1 µM | 0.1 to 1 µM | 0.1 to 1 µM | 0.1 to 1 µM | < 0.1 µM | 0.1 to 1 µM | 0.1 to 1 µM | 0.1 to 1 µM | 0.1 to 1 µM
Cc1cn2nc(-n3cc4sc(C5CCNCC5)cc4n3)cc2c(C)n1 [Compound 171] | 0.1 to 1 µM | 0.1 to 1 µM | 1 to 10 µM | 1 to 10 µM | 0.1 to 1 µM | 0.1 to 1 µM | 0.1 to 1 µM | 0.1 to 1 µM | 0.1 to 1 µM | 1 to 10 µM | 1 to 10 µM | 1 to 10 µM
Cc1cc(-c2nc3cn(C4CCNCC4)nc3s2)cc2cn(C)nc12 [Compound 1101] | < 0.1 µM | < 0.1 µM | 0.1 to 1 µM | 0.1 to 1 µM | 0.1 to 1 µM | < 0.1 µM | < 0.1 µM | < 0.1 µM | 0.1 to 1 µM | 0.1 to 1 µM | 0.1 to 1 µM | 0.1 to 1 µM
Cc1cn2cc(-n3cc4sc(C5CCNCC5)cc4n3)cc(F)c2n1 [Compound 166, 4-(2-{8-fluoro-2-methylimidazo[1,2-a]pyridin-6-yl}thieno[3,2-c]pyrazol-5-yl)piperidine] | 0.1 to 1 µM | 0.1 to 1 µM | 1 to 10 µM | 1 to 10 µM | 0.1 to 1 µM | 0.1 to 1 µM | 0.1 to 1 µM | 0.1 to 1 µM | 0.1 to 1 µM | 1 to 10 µM | 1 to 10 µM | 1 to 10 µM
Cc1nc2cc(O)c(-c3nc4cn(C5CCNCC5)nc4s3)cc2o1 [Compound 1104] | < 0.1 µM | 0.1 to 1 µM | 1 to 10 µM | 1 to 10 µM | 0.1 to 1 µM | 0.1 to 1 µM | 0.1 to 1 µM | < 0.1 µM | 1 to 10 µM | 1 to 10 µM | 1 to 10 µM | 1 to 10 µM
Cn1cc2cc(-n3cc4sc(C5CCNCC5)cc4n3)c(O)cc2n1 [Compound 178] | 1 to 10 µM | 1 to 10 µM | 1 to 10 µM | 1 to 10 µM | 1 to 10 µM | 1 to 10 µM | 1 to 10 µM | 1 to 10 µM | 1 to 10 µM | 1 to 10 µM | 1 to 10 µM | 1 to 10 µM
Cc1c(O)c(-c2cc3cn(C4CCNCC4)nc3s2)cc2cn(C)nc12 [Compound 221] | 0.1 to 1 µM | 0.1 to 1 µM | 1 to 10 µM | > 10 µM | > 10 µM | > 10 µM | > 10 µM | > 10 µM | 0.1 to 1 µM | > 10 µM | > 10 µM | > 10 µM
